From PMC12693419, “Design, Synthesis, Biological Evaluation, and In Silico Studies of Novel Multitarget Cinnamic Acid Hybrids” (Molecules, 2025)
pEC50, pIC50: −log10 of the molar value.

Experiments:
COX-1 = molecular target: T1, COX-1 (Homo sapiens, UniProt P23219); experiment: In vitro inhibition of COX-1; format: biochemical
T1 construct: purchased Merck and Sigma-Aldrich
Excerpt: Enzyme inactivation can occur due to the accumulation of hydroperoxides formed from arachidonic acid or other fatty acid substrates. In order to prevent this in the in vitro experiment used for testing COX inhibition activity of the new molecules, a co-substrate like N,N,N′,N′-tetramethyl-p-phenylenediamine (TMPD) is included, as it undergoes co-oxidation by PGG2. The oxidized TMPD has a maximum absorbance at 590 nm. COX enzymes also depend on heme (Fe^3+-protoporphyrin IX) as a cofactor, which can dissociate during purification. To ensure maximum enzyme activity, heme is added to the reaction mixture during the in vitro assay for ovine COX-2 inhibition and COX-1 inhibition.
Cyclooxygenase (COX) activity was measured using arachidonic acid (AA) as the substrate and N,N,N′,N′-tetramethylphenylenediamine (TMPD) as the co-substrate following the reported method. […] The substrate oxidation was monitored at room temperature by recording the increase in absorbance at 590 nm. Absorbance due to the spontaneous oxidation of TMPD was subtracted from the initial oxidation rate observed in the presence of AA. The inhibitory activity of the test compounds at a concentration of 100 μM was evaluated after a 6-min pre-incubation with the enzyme in the presence of heme and TMPD.

[1] = In vitro inhibition of linoleic acid lipid peroxidation (AAPH); settings: 100 μM; anti-lipid peroxidation
Procedure, shortened: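 Thermal decomposition of AAPH generated alkylperoxy radicals that oxidized sodium linoleate in aqueous dispersion at 37 °C. Formation of conjugated diene hydroperoxides was followed by absorbance at 234 nm, with Trolox as reference.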

HeLa cells = experiment: MTT viability assay; format: cell-based; settings: Homo sapiens, 48 h
Procedure: (§1) HeLa, MCF-7, U251, U87, MDA-MB-435, and MDA-MB-231 cancer cell lines were maintained in incubators at 37 °C with 5% CO2 in DMEM medium supplemented with 10% (v/v) fetal bovine serum (FBS) and antibiotics/antimycotics. All cell lines used in this study originate from the Laboratory of Biochemistry, Department of Chemistry, Aristotle University of Thessaloniki. They are low-passage, mycoplasma-free cancer cell lines that have been extensively used over the past 25 years in numerous studies across various fields of cancer research, including drug cytotoxicity testing.
(§2) All cell lines tested were seeded in 96-well plates at a concentration of 6 × 10^3 cells per well, except HeLa, which were seeded at 3 × 10^3 cells per well. The day after, cells were exposed to increasing concentrations of the compounds for 48 h. Cell viability was determined using the 3-(4,5-dimethylthiazol-2-yl)-2,5-diphenyltetrazolium bromide (MTT) assay, a colorimetric assessment of cellular metabolic activity as described previously. Absorbance values from treated samples were normalized to those of untreated controls, which were assigned to a 100% viability value.

MCF-7 cells = experiment: MTT viability assay; format: cell-based; settings: Homo sapiens, MCF7, 48 h
Procedure: as §1, §2

[2] = molecular target: T2, soybean lipoxygenase isoenzyme-1 (SLOX-1) (Glycine max, UniProt P08170); experiment: In vitro inhibition of soybean lipoxygenase; format: biochemical; settings: pH 9.0, read-out: LOX Inh. IC50
T2 construct: purchased Merck and Sigma-Aldrich
T2 sequence (P08170 1-839): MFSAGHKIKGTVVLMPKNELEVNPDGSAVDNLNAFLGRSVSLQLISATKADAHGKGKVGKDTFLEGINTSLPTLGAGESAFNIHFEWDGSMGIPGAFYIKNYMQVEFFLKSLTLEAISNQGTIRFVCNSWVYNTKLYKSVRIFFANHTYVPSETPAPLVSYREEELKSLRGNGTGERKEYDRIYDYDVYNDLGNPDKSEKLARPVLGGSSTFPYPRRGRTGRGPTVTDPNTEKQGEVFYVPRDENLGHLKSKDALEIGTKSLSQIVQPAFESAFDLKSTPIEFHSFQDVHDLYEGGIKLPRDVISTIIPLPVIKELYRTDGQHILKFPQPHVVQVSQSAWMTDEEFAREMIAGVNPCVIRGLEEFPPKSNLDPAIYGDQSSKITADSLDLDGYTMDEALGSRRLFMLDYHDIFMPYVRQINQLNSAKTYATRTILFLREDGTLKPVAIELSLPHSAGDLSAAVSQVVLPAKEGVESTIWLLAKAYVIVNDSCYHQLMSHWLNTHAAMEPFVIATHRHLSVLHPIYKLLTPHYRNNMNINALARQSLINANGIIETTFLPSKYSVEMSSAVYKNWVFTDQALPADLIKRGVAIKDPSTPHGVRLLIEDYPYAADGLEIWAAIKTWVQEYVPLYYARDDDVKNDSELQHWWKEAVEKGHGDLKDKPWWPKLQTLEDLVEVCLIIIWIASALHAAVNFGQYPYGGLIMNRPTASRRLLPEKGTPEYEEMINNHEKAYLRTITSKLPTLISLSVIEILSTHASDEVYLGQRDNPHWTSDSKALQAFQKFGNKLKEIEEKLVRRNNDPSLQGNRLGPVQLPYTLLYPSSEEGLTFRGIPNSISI
Procedure: In vitro anti-LOX activities were evaluated using soybean lipoxygenase isoenzyme-1 (SLOX-1), a commonly used model for mammalian LOXs.
An in vitro study was conducted following a previously reported method. The tested compounds were dissolved in DMSO (100 µM) and incubated at room temperature with 0.1 mL of sodium linoleate as the substrate and 0.2 mL of soybean lipoxygenase solution in Tris-HCl buffer (pH 9.0).

T1 sequence (P23219 24-599): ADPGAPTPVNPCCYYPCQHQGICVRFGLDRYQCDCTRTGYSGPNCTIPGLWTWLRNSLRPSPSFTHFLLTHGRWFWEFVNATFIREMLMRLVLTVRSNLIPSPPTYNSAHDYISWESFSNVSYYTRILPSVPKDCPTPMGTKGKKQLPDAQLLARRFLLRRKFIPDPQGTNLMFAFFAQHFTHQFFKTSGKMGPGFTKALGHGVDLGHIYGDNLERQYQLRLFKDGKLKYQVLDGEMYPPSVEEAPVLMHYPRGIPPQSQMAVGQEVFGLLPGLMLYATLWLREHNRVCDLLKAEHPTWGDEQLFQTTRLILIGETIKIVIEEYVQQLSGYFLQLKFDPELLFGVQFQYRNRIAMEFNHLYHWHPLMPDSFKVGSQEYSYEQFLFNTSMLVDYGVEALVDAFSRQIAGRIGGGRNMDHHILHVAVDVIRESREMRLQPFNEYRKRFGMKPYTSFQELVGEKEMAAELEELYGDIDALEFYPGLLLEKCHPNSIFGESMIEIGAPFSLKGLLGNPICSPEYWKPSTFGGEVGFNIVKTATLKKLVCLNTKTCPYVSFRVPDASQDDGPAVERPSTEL

C/C(=N\O)c1ccc(NC(=O)COC(=O)/C=C/c2cccs2)cc1 [Compound 6c, 2-((4-((E)-1-(Hydroxyimino)ethyl)phenyl)amino)-2-oxoethyl (E)-3-(thiophen-2-yl)acrylate]
inhibition at 100 µM (COX-1): 0%
COX-1 at 100 μM (% inhibition) (COX-1): did not show any inhibition activity and no
AAPH Inh. at 100 μΜ [1]: 4%
pEC50 (HeLa cells): 4.08
pEC50 (MCF-7 cells): < 4.00
pIC50 [2]: 5.00

C/C(=N\O)c1ccc(NC(=O)COC(=O)/C(=C/c2cccs2)c2ccccc2)cc1 [Compound 6i, 2-((4-((E)-1-(Hydroxyimino)ethyl)phenyl)amino)-2-oxoethyl (E)-2-phenyl-3-(thiophen-2-yl)acrylate]
inhibition at 100 µM (COX-1): 16.7%
AAPH Inh. at 100 μΜ [1]: 28%
pEC50 (HeLa cells): 4.44
pEC50 (MCF-7 cells): 4.42
pIC50 [2]: 4.22

O=C(/C=C/c1cc2ccccc2s1)OCc1c(-c2ccccc2)no[n+]1[O-] [Compound 9e, (E)-3-(((3-(Benzo[b]thiophen-2-yl)acryloyl)oxy)methyl)-4-phenyl-1,2,5-oxadiazole 2-oxide]
inhibition at 100 µM (COX-1): 0%
COX-1 at 100 μM (% inhibition) (COX-1): did not show any inhibition activity and no
AAPH Inh. at 100 μΜ [1]: 67%
pEC50 (HeLa cells): 4.26
pEC50 (MCF-7 cells): 4.23
pIC50 [2]: 4.19
